Results published in the supplement of paper PMC10307832.

What was measured:
Assay in all cases: relative viability (nuclei count vs DMSO), 5 days (fraction); higher = more cells survive
RU-SKI 43 + Bortezomib = compound: CC[C@@H](C)CNCC(=O)N1CCC2=C([C@@H]1COC3=CC=CC(=C3)C)C=CS2 [RU-SKI 43] + CC(C)C[C@H](NC(=O)[C@H](Cc1ccccc1)NC(=O)c1cnccn1)B(O)O [Bortezomib] (partner 0.002 µM)
Procedure, shortened: (§1)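 The day after seeding in 1536-well plates, lung cancer cell lines were treated by pin tool with a single drug, or with a fixed anchor-drug dose together with five library-drug doses (not always all listed) in √10 steps. After 5 days, a combined fix-and-stain solution (final 0.05% Triton X-100, 1% formaldehyde, 1 ug/ml Hoechst) was added. Nuclei counted on 4× images gave relative viability as treated counts over vehicle counts, reported as the median of duplicate plates.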

RU-SKI 43 + Luminespib = compound: CC[C@@H](C)CNCC(=O)N1CCC2=C([C@@H]1COC3=CC=CC(=C3)C)C=CS2 [RU-SKI 43] + CCNC(=O)c1noc(-c2cc(C(C)C)c(O)cc2O)c1-c1ccc(CN2CCOCC2)cc1 [Luminespib] (partner 0.01 µM)
Procedure, shortened: as §1

RU-SKI 43 + Pictilisib = compound: CC[C@@H](C)CNCC(=O)N1CCC2=C([C@@H]1COC3=CC=CC(=C3)C)C=CS2 [RU-SKI 43] + CS(=O)(=O)N1CCN(Cc2cc3nc(-c4cccc5[nH]ncc45)nc(N4CCOCC4)c3s2)CC1 [Pictilisib] (partner 1 µM)
Procedure, shortened: as §1

MK-8033 + Trametinib = compound: Cn1cc(-c2cnc3ccc4ccc(CS(=O)(=O)NCc5ccccn5)cc4c(=O)c3c2)cn1 [MK-8033] + CC(=O)Nc1cccc(-n2c(=O)n(C3CC3)c(=O)c3c(Nc4ccc(I)cc4F)n(C)c(=O)c(C)c32)c1 [Trametinib] (partner 0.02 µM)
Procedure, shortened: as §1

| Cell Line | relative viability (RU-SKI 43 + Bortezomib; first compound 0.1 µM) | relative viability (RU-SKI 43 + Bortezomib; first compound 0.3162 µM) | relative viability (RU-SKI 43 + Bortezomib; first compound 1 µM) | relative viability (RU-SKI 43 + Bortezomib; first compound 3.162 µM) | relative viability (RU-SKI 43 + Bortezomib; first compound 10 µM) | relative viability (RU-SKI 43 + Luminespib; first compound 0.1 µM) | relative viability (RU-SKI 43 + Luminespib; first compound 0.3162 µM) | relative viability (RU-SKI 43 + Luminespib; first compound 1 µM) | relative viability (RU-SKI 43 + Luminespib; first compound 3.162 µM) | relative viability (RU-SKI 43 + Luminespib; first compound 10 µM) | relative viability (RU-SKI 43 + Pictilisib; first compound 0.1 µM) | relative viability (RU-SKI 43 + Pictilisib; first compound 0.3162 µM) | relative viability (RU-SKI 43 + Pictilisib; first compound 1 µM) | relative viability (RU-SKI 43 + Pictilisib; first compound 3.162 µM) | relative viability (RU-SKI 43 + Pictilisib; first compound 10 µM) | relative viability (MK-8033 + Trametinib; first compound 0.02 µM) | relative viability (MK-8033 + Trametinib; first compound 0.06325 µM) | relative viability (MK-8033 + Trametinib; first compound 0.2 µM) | relative viability (MK-8033 + Trametinib; first compound 0.6325 µM) | relative viability (MK-8033 + Trametinib; first compound 2 µM) |
| --- | --- | --- | --- | --- | --- | --- | --- | --- | --- | --- | --- | --- | --- | --- | --- | --- | --- | --- | --- | --- |
| NCI-H727 | 1 | 1.14 | 0.834 | 0.839 | 0.802 | 0.365 | 0.393 | 0.26 | 0.362 | 0.664 | 0.31 | 0.305 | 0.438 | 0.497 | 0.377 | 0.371 | 0.358 | 0.339 | 0.393 | 0.429 |
| EMC-BAC-2 | 1.14 | 1.13 | 1.11 | 1.11 | 1.04 | 1.18 | 1.26 | 1.32 | 1.16 | 1.19 | 0.516 | 0.518 | 0.561 | 0.565 | 0.511 | 0.804 | 0.776 | 0.826 | 0.928 | 0.902 |
| ChaGo-K-1 | 1.39 | 1.14 | 1.29 | 0.84 | 0.939 | 0.661 | 0.566 | 0.723 | 0.645 | 0.516 | 1.07 | 0.75 | 1.12 | 0.435 | 0.495 | 0.877 | 0.717 | 0.802 | 0.886 | 0.729 |
| LXF-289 | 1.06 | 0.977 | 1.03 | 1.06 | 0.974 | 0.729 | 0.853 | 0.852 | 0.751 | 0.568 | 0.828 | 0.809 | 0.832 | 0.794 | 0.744 | 0.702 | 0.616 | 0.685 | 0.711 | 0.659 |
| HCC-827 | 0.989 | 1.07 | 1.18 | 1.11 | 1.02 | 0.77 | 0.795 | 0.588 | 0.612 | 0.679 | 0.994 | 0.97 | 1.19 | 1.05 | 0.94 | 0.578 |  | 0.534 | 0.547 | 0.605 |
| HCC-44 | 0.918 | 0.864 | 1 | 0.849 | 0.852 | 1.02 |  | 1.16 | 1.02 | 0.894 | 0.668 | 0.504 | 0.77 | 0.675 | 0.566 | 1.01 | 1.04 | 1.04 | 1.02 | 1.04 |
| NCI-H2023 | 0.88 | 1.21 | 1.04 | 1.15 | 0.932 | 0.919 | 1 | 0.887 | 0.856 | 0.876 | 0.269 | 0.213 | 0.236 | 0.264 | 0.212 | 0.552 | 0.511 | 0.453 | 0.475 | 0.366 |
| NCI-H1734 | 0.971 | 1.08 | 0.917 | 0.824 | 0.789 | 0.177 | 0.17 | 0.223 | 0.192 | 0.168 | 0.467 | 0.585 | 0.459 | 0.454 | 0.431 | 0.655 | 0.594 | 0.712 | 0.636 | 0.687 |
| NCI-H2342 |  |  |  |  |  | 0.686 | 0.667 | 0.713 | 0.62 | 0.617 |  |  |  |  |  | 0.83 | 0.773 | 0.827 | 0.999 | 0.83 |
| IA-LM | 0.798 | 0.759 | 1.12 | 0.912 | 0.745 |  |  |  |  |  | 0.353 | 0.321 | 0.397 | 0.385 | 0.404 |  |  |  |  |  |
| LK-2 |  |  |  |  |  | 0.182 | 0.168 | 0.171 | 0.189 | 0.177 | 0.596 | 0.809 | 0.686 |  | 0.532 | 0.668 | 0.687 | 0.688 | 0.849 | 0.766 |
| NCI-H1395 |  |  |  |  |  | 0.733 | 0.899 | 0.862 | 0.649 | 0.635 | 0.607 | 0.574 | 0.668 | 0.58 | 0.542 | 0.911 | 0.983 | 1.01 | 1.05 | 1.03 |
| NCI-H1793 |  |  |  |  |  | 0.167 | 0.154 | 0.205 | 0.154 | 0.183 | 0.396 | 0.411 | 0.479 | 0.318 | 0.31 | 0.425 |  | 0.362 | 0.447 | 0.361 |
| SW 900 |  |  |  |  |  | 0.196 | 0.188 | 0.195 | 0.169 | 0.151 |  |  |  |  |  | 0.762 | 0.583 | 0.612 | 0.936 | 0.848 |
| NCI-H1944 |  |  |  |  |  | 0.643 | 0.751 | 0.832 | 0.819 | 0.662 | 0.336 | 0.317 | 0.372 | 0.353 | 0.351 | 0.407 | 0.418 | 0.395 | 0.391 | 0.398 |
| NCI-H1703 | 0.345 | 0.227 | 0.371 | 0.282 | 0.227 |  |  |  |  |  | 0.253 | 0.209 | 0.263 | 0.273 | 0.219 |  |  |  |  |  |
| NCI-H1299 | 0.985 | 1.04 | 1.06 | 1.05 | 1.02 |  |  |  |  |  | 0.823 | 1.05 | 0.709 | 0.789 | 0.686 |  |  |  |  |  |
| SK-MES-1 |  |  |  |  |  | 0.761 | 0.854 | 0.818 | 0.929 | 0.75 | 0.34 | 0.332 | 0.366 | 0.444 | 0.336 | 0.44 | 0.478 | 0.539 | 0.583 | 0.534 |
| NCI-H2170 |  |  |  |  |  | 0.751 | 0.73 | 0.73 | 0.755 | 0.67 | 0.293 | 0.256 | 0.334 | 0.282 | 0.278 | 0.838 | 0.92 | 0.844 | 0.922 | 0.824 |
| HCC-366 | 1.11 | 1.39 | 1.24 | 1.24 | 1.07 |  |  |  |  |  | 0.134 | 0.196 | 0.175 | 0.221 | 0.137 | 0.43 | 0.346 | 0.314 | 0.279 | 0.362 |
